Results from article PMC6934184, “Selective DNA-PKcs inhibition extends the therapeutic index of localized radiotherapy and chemotherapy” (The Journal of Clinical Investigation, 2019).

Target: T1, ERBB2 (HER2) (Homo sapiens, UniProt P04626)
T1 construct: purchased Thermo Fisher Scientific (Life Technologies) SelectScreen
Assay: SelectScreen Z'LYTE
Type: biochemical
How it was run: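 SelectScreen broad panel; activity (Z'LYTE, Adapta) plus binding formats. ATP: Km app for CSF1R Z'LYTE; 10 for CAMK1 Adapta. Readout = % per kinase.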

T1 sequence (P04626 23-1255): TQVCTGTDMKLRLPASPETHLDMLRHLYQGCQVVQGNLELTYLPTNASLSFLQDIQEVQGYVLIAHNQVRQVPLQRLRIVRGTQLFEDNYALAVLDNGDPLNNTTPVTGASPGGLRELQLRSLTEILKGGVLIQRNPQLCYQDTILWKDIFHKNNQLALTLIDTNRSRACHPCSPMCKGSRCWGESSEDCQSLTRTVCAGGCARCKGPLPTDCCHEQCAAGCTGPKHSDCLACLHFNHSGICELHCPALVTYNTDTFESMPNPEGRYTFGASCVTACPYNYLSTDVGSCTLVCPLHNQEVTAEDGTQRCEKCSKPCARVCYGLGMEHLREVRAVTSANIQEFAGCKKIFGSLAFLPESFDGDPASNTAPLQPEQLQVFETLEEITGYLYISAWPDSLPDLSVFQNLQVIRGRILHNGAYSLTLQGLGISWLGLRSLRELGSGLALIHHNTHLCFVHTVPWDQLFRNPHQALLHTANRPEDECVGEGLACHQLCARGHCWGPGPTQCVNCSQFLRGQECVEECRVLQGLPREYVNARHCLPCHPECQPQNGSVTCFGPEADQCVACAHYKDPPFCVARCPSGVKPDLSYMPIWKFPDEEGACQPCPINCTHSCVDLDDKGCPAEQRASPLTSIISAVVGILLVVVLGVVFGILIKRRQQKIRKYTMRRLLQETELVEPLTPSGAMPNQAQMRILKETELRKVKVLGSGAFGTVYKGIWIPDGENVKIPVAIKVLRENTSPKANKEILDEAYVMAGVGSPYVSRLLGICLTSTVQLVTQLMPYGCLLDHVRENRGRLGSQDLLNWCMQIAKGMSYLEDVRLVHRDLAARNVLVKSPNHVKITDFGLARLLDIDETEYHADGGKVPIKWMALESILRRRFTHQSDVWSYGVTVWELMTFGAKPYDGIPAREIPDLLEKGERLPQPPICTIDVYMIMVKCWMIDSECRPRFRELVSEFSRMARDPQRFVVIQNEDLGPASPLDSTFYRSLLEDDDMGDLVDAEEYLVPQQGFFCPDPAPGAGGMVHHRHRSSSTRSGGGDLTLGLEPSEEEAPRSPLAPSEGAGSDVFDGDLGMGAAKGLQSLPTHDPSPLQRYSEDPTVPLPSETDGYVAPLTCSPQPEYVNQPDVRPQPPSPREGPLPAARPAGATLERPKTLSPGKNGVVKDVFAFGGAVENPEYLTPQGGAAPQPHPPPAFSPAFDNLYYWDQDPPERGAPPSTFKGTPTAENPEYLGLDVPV

**Q.** Which inhibition at 1 µM does the source give for CN(C(=O)CN1CCOCC1)c1ccc2sc3c(-c4cccc5c(=O)cc(N6CC7CCC(C6)O7)oc45)cccc3c2c1 [NU5455] here?
**A.** 5.6%
